# From patent publication US8026342B2, “Compositions and methods for binding sphingosine-1-phosphate” (Lpath, Inc., priority 2006, dated 2011)
# Where “and” joins values, the source holds several entries; their conditions need not be identical. Equal values may be shown once.
# Experiments:
# COLO205 tumor = experiment: SC COLO205 colorectal tumor xenograft; format: in vivo, nude NCr (nu/nu) mice; conditions: LT1009 50 mg/kg ip q3d; Avastin 40 mg/kg iv q7d; Paclitaxel 15 mg/kg iv q1d×5
# Protocol: Nude mice were implanted sc near the right flank with one fragment per mouse of COLO 205 tumor from an in vivo passage. All treatments were initiated the day when 60 mice in each experiment established tumors ranging in size from approximately 100 to 200 mm3. […] Avastin was administered iv at a dosage of 40 mg/kg/dose on a q7d schedule, injected in a volume of 0.1 mL/20 g body weight. Paclitaxel (positive control), was administered iv at a dosage of 15 mg/kg/dose on a q1d×5 schedule, injected in a volume of 0.1 mL/10 g body weight.
# (§1) Animals were observed daily for mortality. Tumor dimensions and body weights were collected twice weekly starting with the first day of treatment and including the day of study termination. When the median tumor in the vehicle-treated control group in each study reached approximately 4,000 mg, the study was terminated. Tumors from each animal were harvested, wet weights were recorded, tumors were processed for determination of microvascular densities (MVD) by CD-31 staining. Tumor weights (mg) were calculated using the equation for an ellipsoid sphere (l×w^2)/2=mm^3, where l and w refer to the larger and smaller dimensions collected at each measurement and assuming unit density (1 mm^3=1 mg).
# HT29 tumor = experiment: SC HT29 colorectal tumor xenograft; format: in vivo, athymic NCr-nu/nu mice; conditions: LT1009 50 mg/kg ip q2d; Avastin 20 mg/kg iv q4d; 5-FU 75 mg/kg ip q4d
# Protocol: Nude mice were implanted sc near the right flank with one fragment per mouse of HT29 tumor from an in vivo passage. All treatments were initiated the day when 60 mice in each experiment established tumors ranging in size from approximately 100 to 200 mm^3. There were ten mice per treatment group. […] 75 mg/kg 5-FU and 20 mg/kg Avastin were administered ip and iv at a dosage of 75 mg/kg/dose and 20 mg/kg/dose, respectively, q4d, injected in a volume of 0.1 mL/10 g body weight.
# as §1, with “recorded, and” for “recorded,”, “MVD” for “microvascular densities (MVD)”
# DU145 tumor = experiment: SC DU145 prostate tumor xenograft; format: in vivo, nude NCr (nu/nu) mice; conditions: LT1009 50 mg/kg ip q2d; Avastin 20 mg/kg q4d; Paclitaxel 7.5 mg/kg q1d×5
# Protocol: Nude mice were implanted sc near the right flank with one fragment per mouse of DU145 tumor from an in vivo passage. All treatments were initiated the day when 60 mice in each experiment established tumors ranging in size from approximately 100 to 200 mm^3. […] Paclitaxel and Avastin were administered iv and ip at a dosage of 7.5 mg/kg/dose and 20 mg/kg/dose, q1d×5 and q4d, respectively, injected in a volume of 0.1 mL/10 g body weight.
# During the course of the study tumor growth was monitored by measuring the sc tumors on three axes and calculating the volume. At the end of the study final tumor weights and volumes were determined and then the mice were sacrificed, the tumors harvested. Microvascular densities (MVD) of the tumors were then determined by CD-31 staining.
# [1] = test system: experimental autoimmune encephalomyelitis; conditions: 0.1 mg/kg p.o. or higher doses; cited from earlier work
# peripheral lymphocytes = conditions: single oral dose; cited from earlier work
# HUVECs = experiment: HUVEC Matrigel chemoinvasion (migration) assay; format: cell-based, human; conditions: 0.1-1 μM S1P
# Protocol: FIG. 5 has two panels, A and B. In panel A, S1P is shown to promote neovascularization through induction of HUVECs tube formation and migration, which is reduced by SPHINGOMAB. […] The number of cells that migrated to the Matrigel membrane were counted in five independent fields.
# Experiments were performed as described by Visentin et al. (Cancer Cell 2006 March; 9(3):225-38).
# [2] = test system: Matrigel plug neovascularization; experiment: In vivo Matrigel plug assay for neovascularization (S1P, VEGF, bFGF); design: species or system mice; conditions: Matrigel with 1 μM S1P
# Protocol: Based on in vivo studies showing that S1P increased endothelial capillary growth into subcutaneously implanted Matrigel plugs, we speculated that SPHINGOMAB could reduce de novo BV formation in vivo. To investigate this, we employed the in vivo Matrigel Plug assay for neovascularization. In one set of experiments, Matrigel was supplemented with either 1 μM S1P, 0.5 μg/mL bFGF or 1 μg/mL VEGF and then […]. into mice (n=4). After 10 days, the mice were heparinized and injected with the fluorescent lectin, Isolectin B4-FITC, which binds to adhesion molecules expressed by vascular EC that form the growing BVs. The plugs were then excised, frozen in OCT, sectioned and viewed for FITC-stained BVs.
# Sections of the plugs were then stained with hemotoxyln & eosin for evaluation of EC infiltration (FIG. 6B). The infiltration of ECs is a critical step in neo-vascularization. […] Cell infiltration is presumed to be ECs although we recognize that other cell types such as immune cells may also be stained.
# Endogenous S1P from the blood and surrounding tissue could supply a wound with pro-angiogenic stimuli. The ability of SPHINGOMAB to reduce endogenous S1P in a wound was investigated. Optimally stimulated plugs (Matrigel supplemented with 0.5 μg/mL bFGF or […] VEGF) were implanted into mice. Mice received i.p. injections of 25 mg/kg SPHINGOMAB or saline every 48 hrs starting 1 day prior to Matrigel implantation. Each treatment group (Matrigel, Matrigel plus GF or Matrigel plus GF and administered SPHINGOMAB) consisted of a minimum of 6 mice. After 10 days, the mice were treated with heparin, injected with Isolectin B4-FITC, the plugs excised, embedded in OCT freezing medium and sectioned.
# [3] = test system: human retinal pigmented epithelial cells; experiment: alpha-SMA expression (myofibroblast transformation) in retinal pigmented epithelial cells; format: cell-based
# From the text: (§2) In many of these disorders, circulating growth factors and chemokines promote the transformation of normal ocular cells into fibrocontractile, scar tissue-producing cells that have been termed “myofibroblasts”. Normally, myofibroblasts are responsible for tissue repair as part of the wound healing response following injury. However altered number and function of myofibroblasts are implicated in diseases characterized by pathological scar tissue formation in the liver, skin, lung, kidney, heart and eyes. In the eye, transformation of retinal pigmented epithelial (RPE) cells to a myofibroblast phenotype is linked to formation of fibro-contractile membranes which cause retinal detachment and subsequent vision impairment. In addition, myofibroblast transformation of ocular fibroblasts can result in abnormal scar tissue production after eye injury leading to subsequent vision loss. Although many of the circulating protein factors in the eye that promote myofibroblast formation have been identified, nothing is known regarding the role of lysolipids such as S1P in this process. Therefore, we examined the effects of S1P on myofibroblast transformation of several human ocular cell lines.
# In these experiments, the ability of S1P to promote α-SMA expression differed in a concentration dependent manner between the retinal pigmented epithelial cells and conjunctiva fibroblasts. […]
# [4] = test system: human conjunctiva fibroblasts; experiment: alpha-SMA and PAI-1 expression in conjunctiva fibroblasts; format: cell-based
# From the text: as §2
# In these experiments, the ability of S1P to promote α-SMA expression differed in a concentration dependent manner between the retinal pigmented epithelial cells and conjunctiva fibroblasts. […] This difference is believed to result from increased S1P receptor expression in the epithelial cells compared to the fibroblasts. Due to increased S1P receptor expression levels, retinal pigmented epithelial cells are likely more sensitive to S1P at low concentrations. In contrast, at high S1P levels the receptors become […] or possibly even internalized leading to decreased stimulation by S1P.
# Collagen is one of the primary structural proteins that supports all tissues in the body and is one of the main components of scar tissue. In the non-pathological setting, total collagen content within tissue is maintained via a balance between collagen production by fibroblasts and degradation by certain enzymes. […]
# RPMI 8226 tumor = experiment: RPMI 8226 human myeloma tumor xenograft; format: in vivo, CB17 SCID mice; conditions: LT1009 50 mg/kg IP Q3D to end; Bortezomib iv Q3D×6
# Protocol: Nude mice (CB17 SCID, aged 4-5 weeks, weight 18-22 gm, female mice obtained from Harlan) were injected sc with RPMI 8226 cells harvested from tissue culture (˜1×10^7 cells/mouse). When tumors grew to approximately 100 mm^3 in size, animals were pair-matched by tumor size into treatment and control groups (10 mice per group). Initial dosing began Day 1 following pair-matching. Animals in all groups were dosed by weight (0.01 ml per gram; 10 ml/kg). […] Bortezomib was administered by intravenous injection via tail vein once every three days for six treatments (Q3D×6).
# Individual and group mean tumor volumes±SEM are recorded twice weekly until study completion beginning Day 1. Final mean tumor volume±SEM for each group are reported at study completion; animals experiencing partial or complete tumor regressions or animals experiencing technical or drug-related deaths are censored from these calculations.
# exudative AMD = conditions: 2 year MARINA trial and 1 year ANCHOR trial; cited from earlier work
molecule,measurement,setting,value
"Avastin: anti-angiogenic drug, bevacizumab (Avastin, Genentech)",% Reduction compared to Vehicle-Treated Mice,COLO205 tumor,35%
same,Final Tumor Weights,COLO205 tumor,1967.90 mg
same,% Reduction compared to Vehicle-Treated Mice,HT29 tumor,30%
same,Final Tumor Weights,HT29 tumor,1927.44 mg
same,% Reduction compared to Vehicle-Treated Mice,DU145 tumor,80% and 79%
same,Final Tumor Weights,DU145 tumor,578 mg
"O=c1[nH]cc(F)c(=O)[nH]1 [5-FU, 5-fluorouracil]",% Reduction compared to Vehicle-Treated Mice,HT29 tumor,28%
same,Final Tumor Weights,HT29 tumor,1963.71 mg
CC(=O)O[C@H]1C(=O)[C@@]2(C)[C@H]([C@H](OC(=O)c3ccccc3)[C@]3(O)C[C@H](OC(=O)[C@H](O)[C@@H](NC(=O)c4ccccc4)c4ccccc4)C(C)=C1C3(C)C)[C@]1(OC(C)=O)CO[C@@H]1C[C@@H]2O [Paclitaxel],% Reduction compared to Vehicle-Treated Mice,COLO205 tumor,100%
same,Final Tumor Weights,COLO205 tumor,0 mg
same,% Reduction compared to Vehicle-Treated Mice,DU145 tumor,80%
same,Final Tumor Weights,DU145 tumor,539 mg
"CCCCCCCCc1ccc(CCC(N)(CO)CO)cc1.Cl [FTY720, 2-amino-2-(2-[4-octylphenyl]ethyl)-1,3-propanediol hydrochloride]",paralysis in EAE,[1],almost completely prevents paralysis
same,reduction of peripheral lymphocyte counts,peripheral lymphocytes,30-70%
"CCCCCCCCCCCCC/C=C/[C@@H](O)[C@@H](N)COP(=O)(O)O [S1P, sphingosine-1-phosphate]",stimulation of HUVEC migration over non-treated HUVECs,HUVECs,2-2.5 fold
same,increase of EC infiltration in comparison to Matrigel only plugs,[2],3 fold
same,S1P concentration at which a significant increase in α-SMA expression was observed,[3],0.001 µM
same,production of α-Smooth muscle actin (α-SMA),[3],stimulates production
same,PAI-1 expression,[4],stimulates the PAI-1 expression in a dose-dependent manner
same,S1P concentration at which a significant increase in α-SMA expression was observed,[4],10 µM
same,production of α-Smooth muscle actin (α-SMA),[4],stimulates production
"CC(C)C[C@H](NC(=O)[C@H](Cc1ccccc1)NC(=O)c1cnccn1)B(O)O [Bortezomib, reference compound]",% Reduction compared to Vehicle-Treated Mice,RPMI 8226 tumor,20%
same,Final Tumor Weights,RPMI 8226 tumor,1664 mg
"RANIBIZUMAB: antibody fragment inhibiting all isoforms of VEGF-A (antibody, chains of the INN, looked up, V domains shown, Fab) VH: EVQLVESGGGLVQPGGSLRLSCAASGYDFTHYGMNWVRQAPGKGLEWVGWINTYTGEPTYAADFKRRFTFSLDTSKSTAYLQMNSLRAEDTAVYYCAKYPYYYGTSHWYFDVWGQGTLVTVSS VL: DIQLTQSPSSLSASVGDRVTITCSASQDISNYLNWYQQKPGKAPKVLIYFTSSLHSGVPSRFSGSGSGTDFTLTISSLQPEDFATYYCQQYSTVPWTFGQGTKVEIK",patients achieving some visual gain,exudative AMD,approximately 40%
